According to ChEMBL document CHEMBL1212878, “In vitro ADMET and physicochemical investigations of poly-N-methylated peptides designed to inhibit Abeta aggregation” (Bioorg Med Chem, 2010):
≈ marks a conversion by molar mass, not a printed value. Calls of active or inactive are those of the source. The calls are words filed in the database; no cut-off is given here. Square brackets hold non-standard residues; d marks the D form. Peptide text beside a SMILES is read from it. NMeF = CN[C@@H](Cc1ccccc1)C(=O)O; NMeI = CC[C@H](C)[C@H](NC)C(=O)O; NMeL = CN[C@@H](CC(C)C)C(=O)O; NMeV = CN[C@H](C(=O)O)C(C)C; NMeA = CN[C@@H](C)C(=O)O; Sar = CNCC(=O)O

What was measured:
[1] = Aqueous solubility of the compound at pH 7.4; type: physicochemical
[2] = Chemical stability of the compound assessed as compound remaining after enzymatic degradation after 24 hrs; type: physicochemical; conditions: read-out: Activity
[3] = Apparent permeability across rat 2/4/A1 cells in absence of pronase inhibitor; type: ADME, cell-based
[4] = Cytotoxicity against rat 2/4/A1 cells assessed as cell viability up to 200 uM after 4 hrs by MTT assay; type: cell-based; conditions: read-out: Activity
[5] = Inhibition of Amyloid beta aggregation

Row | solubility [1] | remaining at 24 h [2] | Papp [3] | inhibition [5] | Compound | viability at 4 h [4]
1 | 3 µM | 20% | 3.1 ×10⁻⁶ cm/s | – | Ac-IGLMVG-NH2 | 95%
2 | 899 µM (≈ 751 µg/mL) | 98% | 2.3 ×10⁻⁶ cm/s | – | CC(=O)N[C@@H](CCCCN)C(=O)N(C)[C@@H](CC(C)C)C(=O)N(C)[C@H](C(=O)N(C)[C@@H](Cc1ccccc1)C(=O)N(C)[C@@H](Cc1ccccc1)C(=O)N(C)[C@@H](C)C(N)=O)C(C)C (Ac-K[NMeL][NMeV][NMeF][NMeF][NMeA]-NH2) | 95%
3 | > 2500 µM | 94% | 1.6 ×10⁻⁶ cm/s | – | CC[C@H](C)[C@@H](C(=O)NCC(=O)N(C)[C@@H](CC(C)C)C(=O)N[C@@H](CCSC)C(=O)N(C)[C@H](C(=O)NCC(N)=O)C(C)C)N(C)C(C)=O (Ac-[NMeI]G[NMeL]M[NMeV]G-NH2) | 95%
4 | > 2500 µM | 60% | 2.2 ×10⁻⁶ cm/s | – | CC[C@H](C)[C@H](NC(C)=O)C(=O)N(C)CC(=O)N[C@@H](CC(C)C)C(=O)N[C@@H](CCSC)C(=O)N[C@H](C(=O)N(C)CC(N)=O)C(C)C (Ac-I[Sar]LMV[Sar]-NH2) | 95%
5 | 32 µM | 36% | 2.8 ×10⁻⁶ cm/s | Active | Ac-KLVFFA-NH2 | 95%
6 | 1580 µM (≈ 1260 µg/mL) | 96% | – | – | CC(=O)N[C@@H](CCCCN)C(=O)N[C@@H](CC(C)C)C(=O)N(C)[C@H](C(=O)N[C@@H](Cc1ccccc1)C(=O)N(C)[C@@H](Cc1ccccc1)C(=O)N[C@@H](C)C(N)=O)C(C)C (Ac-KL[NMeV]F[NMeF]A-NH2) | 95%
7 | > 2500 µM | 100% | 1.4 ×10⁻⁶ cm/s | – | CC[C@H](C)[C@@H](C(=O)N(C)CC(=O)N(C)[C@@H](CC(C)C)C(=O)N[C@@H](CCSC)C(=O)N(C)[C@H](C(=O)N(C)CC(N)=O)C(C)C)N(C)C(C)=O (Ac-[NMeI][Sar][NMeL]M[NMeV][Sar]-NH2) | 95%
8 | > 2500 µM | 94% | – | – | CC(=O)N[C@@H](CCCCN)C(=O)N(C)[C@@H](CC(C)C)C(=O)N[C@H](C(=O)N(C)[C@@H](Cc1ccccc1)C(=O)N[C@@H](Cc1ccccc1)C(=O)N(C)[C@@H](C)C(N)=O)C(C)C (Ac-K[NMeL]V[NMeF]F[NMeA]-NH2) | 95%
